Source: patent US4479954A, “Piperazine substituted carboxamide derivatives, compositions and method of use” (Eisai Co., Ltd., priority 1981, dated 1984)
Counter-ions that a name gives are not always drawn. Like-named read-outs stand apart in the source and are kept apart here.

How the values were obtained:
[1] = test system: sub-diabetic rats; test: Improvement of glucose tolerance in STZ sub-diabetic rats (Experiment 1); format: in vivo, Male Sprague-Dawley rats; conditions: for Improvement of glucose tolerance at 10 mg/kg / inhibition in vivo at 10 mg/kg: Rattus norvegicus; for Improvement of glucose tolerance at 10 mg/kg: po; for inhibition in vivo at 10 mg/kg: 10 mg/kg oral, STZ sub-diabetic rats, relative to control group as 100%
Procedure: Male Sprague-Dawley rats (weighing 300-350 g) were maintained on rat chow and water adlibitum in a constant temperature room (22°-24° C.) for at least a week prior to use in studies. Sub-diabetic rats*^1 were obtained by intrevenous injection of 20 mg/kg of streptozotocin (STZ). The compounds were orally administered in 5% gum arabic suspension in sub-diabetic rats. 3 g/kg of glucose was administered intraperitoneally an hour later. Blood samples were taken from the tail vein, and the blood sugar was measured by the anthrone method [Ui.
*1: STZ sub-diabetic rats are obtained by administering a low dose of streptozotocin (20 mg/kg) dissolved in physiological saline containing 1 mM citrate buffer (pH 4.5) into the superficial cutaneous vein.
*^2 The improvement percent of glucose tolerance means a percentage o
blood sugar of the group treated with the test compounds each after
glucose load (1, 2 and 3 hours after) relative to that of the control

[2] = test system: DDY strain mice; test: Acute Toxicity Test, oral, mice (Experiment 2); format: in vivo; conditions: observation within one week; for Acute toxicity, number of dead cases / number of cases tested, 500 mg/kg: 500 mg/kg oral; for Acute toxicity, number of dead cases / number of cases tested, 1,000 mg/kg: 1,000 mg/kg oral
Procedure: More specifically, when an experiment was carried out in DDY strain mice, there was no case of death at a dosage of 1,000 mg/kg, as shown below.
DDY strain mice (weighing 20-25 g) maintained on mice chow and water adlibitum in a constant temperature room (22°-24° C.) for at least a week were used.
An acute toxicity test was carried out by oral administration of the compounds at two dosage levels of 500 mg/kg and 1,000 mg/kg. Observation of dead cases were made within one week. In table 2, the denominator of each value indicates the number of cases tested and the numerator indicates the number of dead cases. Compounds A, B, C, D, E and F correspond to Compoounds A-F in Experiment 1 respectively.

[3] = 1 h, read-out: Improvement percent of glucose tolerance, 1 hr.
[4] = 2 h, read-out: Improvement percent of glucose tolerance, 2 hrs.
[5] = 3 h, read-out: Improvement percent of glucose tolerance, 3 hrs.
[6] = 1 hr. after glucose load (3 g/kg i.p.), read-out: Improvement percent of glucose tolerance, 1 hr.
[7] = 2 hrs. after glucose load (3 g/kg i.p.), read-out: Improvement percent of glucose tolerance, 2 hrs.
[8] = 3 hrs. after glucose load (3 g/kg i.p.), read-out: Improvement percent of glucose tolerance, 3 hrs.

Row | SMILES | Improvement of glucose tolerance at 10 mg/kg [1, 3] [%] | Improvement of glucose tolerance at 10 mg/kg [1, 4] [%] | Improvement of glucose tolerance at 10 mg/kg [1, 5] [%] | Acute toxicity, number of dead cases / number of cases tested, 500 mg/kg [2] | Acute toxicity, number of dead cases / number of cases tested, 1,000 mg/kg [2] | inhibition in vivo at 10 mg/kg [1, 6] [%] | inhibition in vivo at 10 mg/kg [1, 7] [%] | inhibition in vivo at 10 mg/kg [1, 8] [%] | Improvement percent of glucose tolerance after 1 hour ([1]; 39 mg/kg, 6 rats, after 1 hour, method similar to Experiment 1) [%] | Improvement percent of glucose tolerance after 2 hours ([1]; 39 mg/kg, 6 rats, after 2 hours, method similar to Experiment 1) [%] | Improvement percent of glucose tolerance after 3 hours ([1]; 39 mg/kg, 6 rats, after 3 hours, method similar to Experiment 1) [%]
1 | CCCCCC/C=C/C(=O)OC(CN1CCN(c2ccccn2)CC1)CN1C(=O)[C@H]2CC=CC[C@H]2C1=O.O=C(O)/C=C\C(=O)O.O=C(O)/C=C\C(=O)O (relative stereo) [Compound D, N-[2-(trans-2-Nonenoyloxy)-3-{4-(2-pyridyl)piperazin-1-yl}propyl]cis-cyclohex-4-ene-1,2-dicarboximide dimaleate] | 0 | 13 | 26 | 0/5 | 0/5 |  |  |  |  |  | 
2 | O=C(O)/C=C\C(=O)O.O=C(OC(CN1CCN(c2ccccn2)CC1)CN1C(=O)CCC1=O)C1CCCCC1 (stereo not drawn) [Compound A, N-[2-Cyclohexylcarbonyloxy-3-{4-(2-pyridyl)piperazin-1-yl}propyl]succinimide maleate] | 12 | 25 | 19 | 0/5 | 0/5 |  |  |  |  |  | 
3 | CCCCCC(=O)OC(CN1CCN(C)CC1)CN1C(=O)C2CC=CCC2C1=O (stereo not drawn) [Compound J, N-{2-n-Caproyloxy-3-(4-methylpiperazin-1-yl)propyl}cis-cyclohex-4-ene-1,2-dicarboximide dimaleate] |  |  |  |  |  | 0 | 21 | 32 |  |  | 
4 | O=C(OC(CN1CCN(c2ccccn2)CC1)CN1C(=O)[C@@H]2[C@H](C1=O)[C@@H]1C=C[C@H]2C1)C1CCCCC1 (stereo partly drawn) [Example 7, N-[2-Cyclohexylcarbonyloxy-3-{4-(2-pyridyl)piperazin-1-yl}propyl]-endo-cis-bicyclo[2,2,1]hept-5-ene-2,3-dicarboximide dihydrochloride] |  |  |  |  |  |  |  |  | 23 | 33 | 37
5 | O=C(O)/C=C\C(=O)O.O=C(OC(CN1CCN(c2ccccn2)CC1)CN1C(=O)[C@H]2CC=CC[C@H]2C1=O)c1cccnc1 (relative stereo) [Compound E, N-[2-Nicotinoyloxy-3-{4-(2-pyridyl)piperazin-1-yl}propyl]cis-cyclohex-4-ene-1,2-dicarboximide maleate] | 11 | 20 | 9 | 0/5 | 0/5 |  |  |  |  |  | 
6 | O=C(OC(CN1CCN(c2ccccn2)CC1)CN1C(=O)c2ccccc2C1=O)c1cccnc1 (stereo not drawn) [Compound H, N-[2-Nicotinoyloxy-3-{4-(2-pyridyl)piperazin-1-yl}propyl]phthalimide maleate] |  |  |  |  |  | 19 | 23 | 27 |  |  | 
7 | CCCCCCCCCC(=O)OC(CN1CCN(c2ccccn2)CC1)CN1C(=O)C2CC=CCC2C1=O (stereo not drawn) [Compound B, N-[2-n-Decanoyloxy-3-{4-(2-pyridyl)piperazin-1-yl}propyl]cis-cyclohex-4-ene-1,2-dicarboximide dimaleater] |  |  |  | 0/5 | 0/5 | 15 | 23 | 26 |  |  | 
8 | CCCCCC(=O)OC(CN1CCN(c2ccccn2)CC1)CN1C(=O)C2CC=CCC2C1=O (stereo not drawn) [Compound C, N-[2-n-Caproyloxy-3-{4-(2-pyridyl)piperazin-1-yl}propyl]cis-cyclohex-4-ene-1,2-dicarboximide dimaleate] |  |  |  | 0/5 | 0/5 | 7 | 17 | 23 |  |  | 
9 | O=C(OC(CN1CCN(c2ccccn2)CC1)CN1C(=O)[C@@H]2[C@H](C1=O)[C@@H]1C=C[C@H]2C1)C1CCCCC1 (stereo partly drawn) [Compound F, N-[2-Cyclohexylcarbonyloxy-3-{4-(2-pyridyl)piperazin-1-yl}propyl]endo-cis-bicyclo[2,2,1]hept-5-ene-2,3-dicarboximide dimaleate] |  |  |  | 0/5 | 0/5 | 14 | 25 | 34 |  |  | 
10 | CCC(=O)OC(CN1CCN(c2ccccn2)CC1)CN1C(=O)c2ccccc2C1=O (stereo not drawn) [Compound I, N-[2-Propionyloxy-3-{4-(2-pyridyl)piperazin-1-yl}propyl]phthalimide maleate] |  |  |  |  |  | 14 | 26 | 31 |  |  | 
11 | CCCCCCCCCCCCCCCC(=O)OC(CN1CCN(c2ccccn2)CC1)CN1C(=O)[C@H]2CC=CC[C@H]2C1=O (relative stereo) [Compound G, N-[2-Palmitoyloxy-3-{4-(2-pyridyl)piperazin-1-yl}propyl]cis-cyclohex-4-ene-1,2-dicarboximide dimaleate] |  |  |  |  |  | 3 | 15 | 24 |  |  | 
